# PMC8938680 (2022)
# Test system: E. coli thiM TPP riboswitch (ITC construct) (RNA, riboswitch) GGCAGUACUCGGGGUGCCCUUCUGCGUGAAGGCUGAGAAAUACCCGUAUCACCUGAUCUGGAUAAUGCCAGCGUAGGGAAGUGCUG
# Experiment: ITC
# Conditions: 1 mM MgCl2, 200 mM potassium acetate; 100 mM HEPES-Na pH 8.0, 25 °C
Compound,KT [µM],KL [nM]
Cc1ncc(C[n+]2csc(CCO)c2C)c(N)n1,11,–
Cc1ncc(C[n+]2csc(CCOP(=O)(O)CP(=O)(O)O)c2C)c(N)n1,–,19
